According to PubChem BioAssay (NCI):
“And” between values parts separate entries of the source, which are not always exact repeats. Equal values may be shown once.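 Dose response: 5 concentrations. Exposure: 48 h. Format: 96-well plates. Endpoint: linear interpolation; highest concentration if not reached. GI50 = concentration required for 50% inhibition of growth. TGI denotes the concentration required for complete inhibition of growth.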

Legend:
Experiment in all cases: NCI tumour cell line growth inhibition, 48 h
ACHN renal = test system: ACHN renal
EKVX NSCLC = test system: EKVX NSCLC
HCT-116 colon = test system: HCT-116 colon
HCT-15 colon = test system: HCT-15 colon
LOX IMVI melanoma = test system: LOX IMVI melanoma
MDA-MB-435 = test system: MDA-MB-435
NCI/ADR-RES ovarian = test system: NCI/ADR-RES ovarian
PC-3 prostate = test system: PC-3 prostate
SR leukemia = test system: SR leukemia
UACC-62 melanoma = test system: UACC-62 melanoma

`Cc1nc2ccccn2c1NC(=O)NNC(=S)Nc1ccc(Br)cc1` showed a GI50 (ACHN renal) of 37.9 µM, a TGI (ACHN renal) of over 100 µM and a GI50 (EKVX NSCLC) of 46.4 µM. For the same molecule, the TGI (EKVX NSCLC) was over 100 µM, the GI50 (HCT-116 colon) was 22.9 µM and the TGI (HCT-116 colon) was 62.9 µM. The GI50 (HCT-15 colon) was 28.8 µM, the TGI (HCT-15 colon) was over 100 µM and the GI50 (LOX IMVI melanoma) was 24 µM. It also gave a TGI (LOX IMVI melanoma) of 67.3 µM, a GI50 (MDA-MB-435) of 29.3 µM and a TGI (MDA-MB-435) of 70.6 µM. It also gave a GI50 (NCI/ADR-RES ovarian) of 24.5 µM, a TGI (NCI/ADR-RES ovarian) of 58 µM and a GI50 (PC-3 prostate) of 24.5 µM. The TGI (PC-3 prostate) was over 100 µM, the GI50 (SR leukemia) was 18.9 µM and the TGI (SR leukemia) was 55.6 µM. It also gave a GI50 (UACC-62 melanoma) of 27.8 µM and a TGI (UACC-62 melanoma) of over 100 µM.

Molecule `O=C(CCCCCCCn1cc(-c2cccnc2)nn1)Nc1ccccc1-c1ccccc1` has a GI50 (ACHN renal) of 9.39 µM, a TGI (ACHN renal) of over 100 µM and a GI50 (EKVX NSCLC) of 10.5 µM. The TGI (EKVX NSCLC) was over 100 µM, the GI50 (HCT-116 colon) was 0.0361 µM and the TGI (HCT-116 colon) was over 32.9 µM. The GI50 (HCT-15 colon) was 0.231 µM, the TGI (HCT-15 colon) was over 100 µM and the GI50 (LOX IMVI melanoma) was 4.05 µM. For the same molecule, the TGI (LOX IMVI melanoma) was over 100 µM, the GI50 (MDA-MB-435) was 0.305 µM and the TGI (MDA-MB-435) was 13.2 µM. It also gave a GI50 (NCI/ADR-RES ovarian) of 0.0688 µM, a TGI (NCI/ADR-RES ovarian) of 27.4 µM and a GI50 (PC-3 prostate) of 0.43 µM. It also gave a TGI (PC-3 prostate) of 36.7 µM, a GI50 (SR leukemia) of 3.65 µM and a TGI (SR leukemia) of 64.8 µM. It also gave a GI50 (UACC-62 melanoma) of 9.68 µM and a TGI (UACC-62 melanoma) of 47.3 µM.

In the case of `CNC1C(O)C(OC2C(N)CC(N)C(OC3OC(CN)=CCC3N)C2O)OCC1(C)O` (centres undefined), the TGI (ACHN renal) is reported as over 100 µM, the TGI (EKVX NSCLC) is reported as over 100 µM and the TGI (HCT-116 colon) is reported as over 100 µM. It also gave a TGI (HCT-15 colon) of over 100 µM, a TGI (LOX IMVI melanoma) of over 100 µM and a TGI (MDA-MB-435) of over 100 µM. For the same molecule, the TGI (NCI/ADR-RES ovarian) was over 100 µM, the TGI (PC-3 prostate) was over 100 µM and the TGI (SR leukemia) was over 100 µM. For the same molecule, the TGI (UACC-62 melanoma) was over 100 µM.

With `C[C@H]1CC[C@H]([C@@H](C)[C@H]2[C@@H](O)C[C@H]3[C@@H]4CC[C@H]5C[C@@H](O)CC[C@]5(C)[C@H]4CC[C@]23C)NC1` the TGI (ACHN renal) was 53.7 µM, the TGI (EKVX NSCLC) was 32.5 µM and the TGI (HCT-116 colon) was 31.7 µM. It also gave a TGI (HCT-15 colon) of 36.6 µM, a TGI (LOX IMVI melanoma) of 50.6 µM and a TGI (MDA-MB-435) of 32.3 µM. It also gave a TGI (NCI/ADR-RES ovarian) of 32.6 µM, a TGI (PC-3 prostate) of 31 µM and a TGI (SR leukemia) of 24.7 µM. The TGI (UACC-62 melanoma) was 28.5 µM.

In the case of `O=C(c1ccc(OCCN2CCCCC2)cc1)c1c(-c2ccc(O)cc2)sc2cc(O)ccc12`, the GI50 (ACHN renal) is reported as 13.5 µM and 14.7 µM, the TGI (ACHN renal) is reported as 27.2 µM and 28.2 µM and the GI50 (EKVX NSCLC) is reported as 9.34 µM and 12.8 µM. The TGI (EKVX NSCLC) was 25.7 µM and 33.9 µM, the GI50 (HCT-116 colon) was 3.68 µM and 8.5 µM and the TGI (HCT-116 colon) was 14 µM and 42.7 µM. For the same molecule, the GI50 (HCT-15 colon) was 5.51 µM and 2.67 µM, the TGI (HCT-15 colon) was 20.8 µM and 13.2 µM and the GI50 (LOX IMVI melanoma) was 1.76 µM and 4.06 µM. The TGI (LOX IMVI melanoma) was 3.45 µM and 15.1 µM, the GI50 (MDA-MB-435) was 1.94 µM and 4.2 µM and the TGI (MDA-MB-435) was 4.58 µM and 19.7 µM. The GI50 (NCI/ADR-RES ovarian) was 7.72 µM and 17.7 µM, the TGI (NCI/ADR-RES ovarian) was 23.1 µM and 42.6 µM and the GI50 (PC-3 prostate) was 3.9 µM and 11.7 µM. The TGI (PC-3 prostate) was 18.9 µM and 35.7 µM, the GI50 (SR leukemia) was 3.16 µM and 1.88 µM and the GI50 (UACC-62 melanoma) was 12 µM and 13.7 µM. The TGI (UACC-62 melanoma) was 25.8 µM and 27.2 µM.

For `O=Cc1ccc(-c2ccc(-c3nc4ccccc4[nH]3)cc2)s1`, the GI50 (ACHN renal) was 24.4 µM, the TGI (ACHN renal) was 67.1 µM and the GI50 (EKVX NSCLC) was 24 µM. It also gave a TGI (EKVX NSCLC) of 87 µM, a GI50 (HCT-116 colon) of 18.4 µM and a TGI (HCT-116 colon) of 39 µM. It also gave a GI50 (HCT-15 colon) of 19.1 µM, a TGI (HCT-15 colon) of 53.3 µM and a GI50 (LOX IMVI melanoma) of 21.8 µM. For the same molecule, the TGI (LOX IMVI melanoma) was 64.6 µM, the GI50 (MDA-MB-435) was 26.4 µM and the TGI (MDA-MB-435) was 69.2 µM. The GI50 (NCI/ADR-RES ovarian) was 21.1 µM, the TGI (NCI/ADR-RES ovarian) was 50.9 µM and the GI50 (PC-3 prostate) was 18.2 µM. For the same molecule, the TGI (PC-3 prostate) was 40.3 µM, the GI50 (SR leukemia) was 15.6 µM and the TGI (SR leukemia) was 98.7 µM. It also gave a GI50 (UACC-62 melanoma) of 22.1 µM and a TGI (UACC-62 melanoma) of 52.9 µM.

`CCCCCCCCCCCCNC(=O)[C@H]1CSC(c2cc3ccccc3s2)N1` (some centres undefined) gave a GI50 (ACHN renal) of 4.9 µM, a TGI (ACHN renal) of 9.29 µM and a GI50 (EKVX NSCLC) of 0.951 µM. For the same molecule, the TGI (EKVX NSCLC) was 2.69 µM, the GI50 (HCT-116 colon) was 1.06 µM and the TGI (HCT-116 colon) was 3.42 µM. It also gave a GI50 (HCT-15 colon) of 3.69 µM, a TGI (HCT-15 colon) of 8.17 µM and a GI50 (LOX IMVI melanoma) of 0.534 µM. It also gave a TGI (LOX IMVI melanoma) of 1.05 µM, a GI50 (MDA-MB-435) of 0.605 µM and a TGI (MDA-MB-435) of 1.19 µM. It also gave a GI50 (NCI/ADR-RES ovarian) of 1.66 µM, a TGI (NCI/ADR-RES ovarian) of 6.83 µM and a GI50 (PC-3 prostate) of 1.3 µM. It also gave a TGI (PC-3 prostate) of 4.21 µM, a GI50 (SR leukemia) of 0.695 µM and a TGI (SR leukemia) of 1.85 µM. The GI50 (UACC-62 melanoma) was 1.15 µM and the TGI (UACC-62 melanoma) was 4.28 µM.
